Test results: PMC9481151, “Discovery of new symmetrical and asymmetrical nitrile-containing 1,4-dihydropyridine derivatives as dual kinases and P-glycoprotein inhibitors: synthesis, in vitro assays, and in silico studies” (Journal of Enzyme Inhibition and Medicinal Chemistry, 2022)

How the values were obtained:
A498 = assay: NCI single dose (10 µM) SRB screen; format: cell-based, human; conditions: renal cancer, 48 h
SN12C = assay: NCI single dose (10 µM) SRB screen; format: cell-based, human; conditions: renal cancer, 48 h
HCT-116 = assay: NCI single dose (10 µM) SRB screen; format: cell-based, human; conditions: colon cancer, 48 h
CCRF-CEM = assay: NCI single dose (10 µM) SRB screen; format: cell-based, human; conditions: leukaemia, 48 h
MOLT-4 = assay: NCI single dose (10 µM) SRB screen; format: cell-based, human; conditions: leukaemia, 48 h
OVCAR-5 = assay: NCI single dose (10 µM) SRB screen; format: cell-based, human; conditions: ovarian cancer, 48 h
MDA-MB-435 = assay: NCI single dose (10 µM) SRB screen; format: cell-based, human; conditions: melanoma, 48 h
BT-549 = assay: NCI single dose (10 µM) SRB screen; format: cell-based, human; conditions: breast cancer, 48 h
SF-539 = assay: NCI single dose (10 µM) SRB screen; format: cell-based, human; conditions: CNS cancer, 48 h
T-47D = assay: NCI single dose (10 µM) SRB screen; format: cell-based, human; conditions: breast cancer, 48 h
Aspergillus flavus = assay: Agar well diffusion method
SF-268 = assay: NCI single dose (10 µM) SRB screen; format: cell-based, human; conditions: CNS cancer, 48 h
NCI-H460 = assay: NCI single dose (10 µM) SRB screen; format: cell-based, human; conditions: non-small cell lung cancer, 48 h
EKVX = assay: NCI single dose (10 µM) SRB screen; format: cell-based, human; conditions: non-small cell lung cancer, 48 h
OVCAR-4 = assay: NCI single dose (10 µM) SRB screen; format: cell-based, human; conditions: ovarian cancer, 48 h
HL-60(TB) = assay: NCI single dose (10 µM) SRB screen; format: cell-based, human; conditions: leukaemia, 48 h
SNB-75 = assay: NCI single dose (10 µM) SRB screen; format: cell-based, human; conditions: CNS cancer, 48 h
SF-295 = assay: NCI single dose (10 µM) SRB screen; format: cell-based, human; conditions: CNS cancer, 48 h
U251 = assay: NCI single dose (10 µM) SRB screen; format: cell-based, human; conditions: CNS cancer, 48 h
786-0 = assay: NCI single dose (10 µM) SRB screen; format: cell-based, human; conditions: renal cancer, 48 h
Staphylococcus aureus = assay: Agar well diffusion method
SK-MEL-2 = assay: NCI single dose (10 µM) SRB screen; format: cell-based, human; conditions: melanoma, 48 h
MALME-3M = assay: NCI single dose (10 µM) SRB screen; format: cell-based, human; conditions: melanoma, 48 h
LOX IMVI = assay: NCI single dose (10 µM) SRB screen; format: cell-based, human; conditions: melanoma, 48 h
HS578T = assay: NCI single dose (10 µM) SRB screen; format: cell-based, human; conditions: breast cancer, 48 h
HCC-2998 = assay: NCI single dose (10 µM) SRB screen; format: cell-based, human; conditions: colon cancer, 48 h
HOP-92 = assay: NCI single dose (10 µM) SRB screen; format: cell-based, human; conditions: non-small cell lung cancer, 48 h
UACC-257 = assay: NCI single dose (10 µM) SRB screen; format: cell-based, human; conditions: melanoma, 48 h
PC-3 = assay: NCI single dose (10 µM) SRB screen; format: cell-based, human; conditions: prostate cancer, 48 h
MDA-MB-468 = assay: NCI single dose (10 µM) SRB screen; format: cell-based, human; conditions: breast cancer, 48 h
SNB-19 = assay: NCI single dose (10 µM) SRB screen; format: cell-based, human; conditions: CNS cancer, 48 h
SK-OV-3 = assay: NCI single dose (10 µM) SRB screen; format: cell-based, human; conditions: ovarian cancer, 48 h
M14 = assay: NCI single dose (10 µM) SRB screen; format: cell-based, human; conditions: melanoma, 48 h
NCI-H322M = assay: NCI single dose (10 µM) SRB screen; format: cell-based; conditions: non-small cell lung cancer, 48 h
NCI/ADR-RES = assay: NCI single dose (10 µM) SRB screen; format: cell-based, human; conditions: ovarian cancer, 48 h
MDA-MB-231 = assay: NCI single dose (10 µM) SRB screen; format: cell-based, human; conditions: breast cancer, 48 h
A549/ATCC = assay: NCI single dose (10 µM) SRB screen; format: cell-based, human; conditions: non-small cell lung cancer, 48 h
NCI-H23 = assay: NCI single dose (10 µM) SRB screen; format: cell-based, human; conditions: non-small cell lung cancer, 48 h
K-562 = assay: NCI single dose (10 µM) SRB screen; format: cell-based, human; conditions: leukaemia, 48 h
IGROV1 = assay: NCI single dose (10 µM) SRB screen; format: cell-based, human; conditions: ovarian cancer, 48 h
HT29 = assay: NCI single dose (10 µM) SRB screen; format: cell-based, human; conditions: colon cancer, 48 h
HCT-15 = assay: NCI single dose (10 µM) SRB screen; format: cell-based, human; conditions: colon cancer, 48 h
NCI 60 cancer cell lines = assay: NCI single dose (10 µM) SRB screen, mean over panel; format: cell-based, human; conditions: mean over 60 cell lines, 48 h
TK-10 = assay: NCI single dose (10 µM) SRB screen; format: cell-based, human; conditions: renal cancer, 48 h
UO-31 = assay: NCI single dose (10 µM) SRB screen; format: cell-based, human; conditions: renal cancer, 48 h
Candida albicans = assay: Agar well diffusion method
OVCAR-8 = assay: NCI single dose (10 µM) SRB screen; format: cell-based, human; conditions: ovarian cancer, 48 h
RPMI-8226 = assay: NCI single dose (10 µM) SRB screen; format: cell-based, human; conditions: leukaemia, 48 h
CAKI-1 = assay: NCI single dose (10 µM) SRB screen; format: cell-based, human; conditions: renal cancer, 48 h
COLO 205 = assay: NCI single dose (10 µM) SRB screen; format: cell-based, human; conditions: colon cancer, 48 h
ACHN = assay: NCI single dose (10 µM) SRB screen; format: cell-based, human; conditions: renal cancer, 48 h
OVCAR-3 = assay: NCI single dose (10 µM) SRB screen; format: cell-based, human; conditions: ovarian cancer, 48 h
RXF 393 = assay: NCI single dose (10 µM) SRB screen; format: cell-based, human; conditions: renal cancer, 48 h

CC1=C(C(=O)OCc2ccccc2)C(c2cccc(C#N)c2)C(C(=O)OCc2ccccc2)=C(C)N1 [Compound 1g, Dibenzyl 4-(3-cyanophenyl)-2,6-dimethyl-1,4-dihydropyridine-3,5-dicarboxylate]
GI% A498 (A498): 21%
GI% SN12C (SN12C): 32%
GI% HCT-116 (HCT-116): 76%
GI% CCRF-CEM (CCRF-CEM): 54%
GI% MOLT-4 (MOLT-4): 68%
GI% OVCAR-5 (OVCAR-5): 19%
GI% MDA-MB-435 (MDA-MB-435): 36%
GI% BT-549 (BT-549): – (Only GI% ≥ 10 are shown)
GI% SF-539 (SF-539): 35%
GI% T-47D (T-47D): 53%
zone of inhibition at 1000 µg/mL (Aspergillus flavus; Aspergillus flavus, 24 h, read-out: Diameter of inhibition zone, A. flavus): 14 mm
% activity index, A. flavus (Aspergillus flavus; relative to clotrimazole): 56%
GI% SF-268 (SF-268): 38%
GI% NCI-H460 (NCI-H460): 64%
GI% EKVX (EKVX): 50%
GI% OVCAR-4 (OVCAR-4): 33%
GI% HL-60(TB) (HL-60(TB)): 62%
GI% SNB-75 (SNB-75): 23%
GI% SF-295 (SF-295): 56%
GI% U251 (U251): 49%
GI% 786-0 (786-0): 32%
zone of inhibition at 1000 µg/mL (Staphylococcus aureus; Staphylococcus aureus, 24 h, read-out: Diameter of inhibition zone, S. aureus): 15 mm
% activity index, S. aureus (Staphylococcus aureus; relative to ciprofloxacin): 62.5%
GI% SK-MEL-2 (SK-MEL-2): 19%
GI% MALME-3M (MALME-3M): 32%
GI% LOX IMVI (LOX IMVI): 65%
GI% HS578T (HS578T): 35%
GI% HCC-2998 (HCC-2998): – (Only GI% ≥ 10 are shown)
GI% HOP-92 (HOP-92): 42%
GI% UACC-257 (UACC-257): 36%
GI% PC-3 (PC-3): 76%
GI% MDA-MB-468 (MDA-MB-468): 62%
GI% SNB-19 (SNB-19): 32%
GI% SK-OV-3 (SK-OV-3): – (Only GI% ≥ 10 are shown)
GI% M14 (M14): 35%
GI% NCI-H322M (NCI-H322M): 15%
GI% NCI/ADR-RES (NCI/ADR-RES): 45%
GI% MDA-MB-231 (MDA-MB-231): 37%
GI% A549/ATCC (A549/ATCC): 45%
GI% NCI-H23 (NCI-H23): 23%
GI% K-562 (K-562): 69%
GI% IGROV1 (IGROV1): 45%
GI% HT29 (HT29): 48%
GI% HCT-15 (HCT-15): 72%
Mean GI% (NCI 60 cancer cell lines): 41%
GI% TK-10 (TK-10): – (Only GI% ≥ 10 are shown)
GI% UO-31 (UO-31): 34%
zone of inhibition at 1000 µg/mL (Candida albicans; Candida albicans, 24 h, read-out: Diameter of inhibition zone, C. albicans): 10 mm
% activity index, C. albicans (Candida albicans; relative to clotrimazole): 37%
GI% OVCAR-8 (OVCAR-8): 41%
GI% RPMI-8226 (RPMI-8226): 65%
GI% CAKI-1 (CAKI-1): 56%
GI% COLO 205 (COLO 205): 47%
GI% ACHN (ACHN): 52%
GI% OVCAR-3 (OVCAR-3): 23%
GI% RXF 393 (RXF 393): 36%
